Experiment in all cases: Kinase panel (Eurofins)
Type in all cases: biochemical
Holding throughout (details): n = 2; for inhibition at 1 µM: at 1 μmol/L; for IC50: read-out: IC50 kinase inhibition

One assay has as its target T1, HIPK4(h) (Homo sapiens, UniProt Q8NE63).
T1 construct: purchased Eurofins
T1 sequence (Q8NE63 1-616): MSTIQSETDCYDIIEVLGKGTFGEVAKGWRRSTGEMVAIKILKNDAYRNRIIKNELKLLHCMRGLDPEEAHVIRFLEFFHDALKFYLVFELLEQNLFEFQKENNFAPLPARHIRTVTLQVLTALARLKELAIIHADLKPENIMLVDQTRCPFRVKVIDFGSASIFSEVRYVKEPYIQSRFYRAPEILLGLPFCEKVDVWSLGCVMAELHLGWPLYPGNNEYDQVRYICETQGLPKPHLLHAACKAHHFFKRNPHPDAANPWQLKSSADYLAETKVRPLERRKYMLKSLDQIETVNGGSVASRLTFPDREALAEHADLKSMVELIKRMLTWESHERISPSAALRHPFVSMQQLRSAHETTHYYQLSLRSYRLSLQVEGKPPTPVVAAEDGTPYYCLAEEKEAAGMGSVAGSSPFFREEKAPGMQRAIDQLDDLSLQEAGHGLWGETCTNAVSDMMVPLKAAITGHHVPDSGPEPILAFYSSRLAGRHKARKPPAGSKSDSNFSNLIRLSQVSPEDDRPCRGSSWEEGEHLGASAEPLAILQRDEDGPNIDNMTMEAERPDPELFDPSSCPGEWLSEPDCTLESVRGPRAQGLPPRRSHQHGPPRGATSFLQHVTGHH
An excerpt: (§1) These receptors have a methionine gatekeeper in their kinase domains, and are related to hyperglycemia in other clinical trials of EGFR TKI, such as Co-1686.

Another assay has as its target T2, Pyk2(h) (Homo sapiens, UniProt Q14289).
T2 construct: purchased Eurofins
From the text: as §1

The next assay concerns the target T3, ALK(h) (Homo sapiens, UniProt Q9UM73).
T3 construct: purchased Eurofins
From the text: as §1

A further assay deals with T4, IGF-1R(h), activated (Homo sapiens, UniProt P08069).
T4 construct: purchased Eurofins
From the text: as §1

The next assay addresses T5, ErbB2(h) (Homo sapiens, UniProt P04626).
T5 construct: purchased Eurofins
From the text: as §1

The target of another assay is T6, MYO3B(h) (Homo sapiens, UniProt Q8WXR4).
T6 construct: purchased Eurofins
T6 sequence (Q8WXR4 1-1341): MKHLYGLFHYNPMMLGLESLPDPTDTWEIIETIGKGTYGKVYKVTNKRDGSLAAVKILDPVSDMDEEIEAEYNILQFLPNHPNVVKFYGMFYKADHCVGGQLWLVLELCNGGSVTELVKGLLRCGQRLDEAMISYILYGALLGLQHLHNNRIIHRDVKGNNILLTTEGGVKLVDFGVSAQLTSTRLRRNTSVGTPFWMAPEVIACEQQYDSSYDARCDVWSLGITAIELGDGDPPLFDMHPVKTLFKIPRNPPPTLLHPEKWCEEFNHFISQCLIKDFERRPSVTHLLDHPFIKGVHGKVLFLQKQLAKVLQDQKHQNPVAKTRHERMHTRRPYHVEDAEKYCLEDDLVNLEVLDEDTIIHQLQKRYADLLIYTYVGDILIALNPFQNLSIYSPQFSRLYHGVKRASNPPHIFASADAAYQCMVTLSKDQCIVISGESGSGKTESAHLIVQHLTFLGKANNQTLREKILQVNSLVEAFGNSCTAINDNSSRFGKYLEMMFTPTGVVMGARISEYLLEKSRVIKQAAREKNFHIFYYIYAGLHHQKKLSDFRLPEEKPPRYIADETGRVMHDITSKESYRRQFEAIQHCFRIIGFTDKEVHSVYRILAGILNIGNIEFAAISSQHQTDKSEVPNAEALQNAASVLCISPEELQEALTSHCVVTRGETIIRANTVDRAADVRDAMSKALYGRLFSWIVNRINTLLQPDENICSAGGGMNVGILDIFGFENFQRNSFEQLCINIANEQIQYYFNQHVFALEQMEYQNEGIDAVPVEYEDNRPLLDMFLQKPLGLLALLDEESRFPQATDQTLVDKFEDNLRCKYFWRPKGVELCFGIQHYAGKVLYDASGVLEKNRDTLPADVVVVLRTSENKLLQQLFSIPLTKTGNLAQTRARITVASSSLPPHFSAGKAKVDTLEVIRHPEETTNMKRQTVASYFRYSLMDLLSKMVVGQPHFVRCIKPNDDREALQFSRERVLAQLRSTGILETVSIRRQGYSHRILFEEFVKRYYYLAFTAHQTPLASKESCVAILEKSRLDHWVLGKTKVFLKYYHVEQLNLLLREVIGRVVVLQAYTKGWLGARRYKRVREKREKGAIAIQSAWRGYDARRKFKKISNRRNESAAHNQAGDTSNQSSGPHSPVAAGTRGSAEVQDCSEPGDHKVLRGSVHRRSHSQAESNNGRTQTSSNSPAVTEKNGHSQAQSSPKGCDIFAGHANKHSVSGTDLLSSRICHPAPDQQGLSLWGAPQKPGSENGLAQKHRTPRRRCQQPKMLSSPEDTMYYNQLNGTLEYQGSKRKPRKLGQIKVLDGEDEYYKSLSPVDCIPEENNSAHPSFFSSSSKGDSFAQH
From the text: as §1

For the next assay, the target named is T7, Fes(h) (Homo sapiens, UniProt P07332).
T7 construct: purchased Eurofins
From the text: as §1

The structures appear in SMILES notation.

2 molecules from article PMC8111447 (Frontiers in Pharmacology, 2021) can be followed below.

T4 sequence (P08069 31-1367): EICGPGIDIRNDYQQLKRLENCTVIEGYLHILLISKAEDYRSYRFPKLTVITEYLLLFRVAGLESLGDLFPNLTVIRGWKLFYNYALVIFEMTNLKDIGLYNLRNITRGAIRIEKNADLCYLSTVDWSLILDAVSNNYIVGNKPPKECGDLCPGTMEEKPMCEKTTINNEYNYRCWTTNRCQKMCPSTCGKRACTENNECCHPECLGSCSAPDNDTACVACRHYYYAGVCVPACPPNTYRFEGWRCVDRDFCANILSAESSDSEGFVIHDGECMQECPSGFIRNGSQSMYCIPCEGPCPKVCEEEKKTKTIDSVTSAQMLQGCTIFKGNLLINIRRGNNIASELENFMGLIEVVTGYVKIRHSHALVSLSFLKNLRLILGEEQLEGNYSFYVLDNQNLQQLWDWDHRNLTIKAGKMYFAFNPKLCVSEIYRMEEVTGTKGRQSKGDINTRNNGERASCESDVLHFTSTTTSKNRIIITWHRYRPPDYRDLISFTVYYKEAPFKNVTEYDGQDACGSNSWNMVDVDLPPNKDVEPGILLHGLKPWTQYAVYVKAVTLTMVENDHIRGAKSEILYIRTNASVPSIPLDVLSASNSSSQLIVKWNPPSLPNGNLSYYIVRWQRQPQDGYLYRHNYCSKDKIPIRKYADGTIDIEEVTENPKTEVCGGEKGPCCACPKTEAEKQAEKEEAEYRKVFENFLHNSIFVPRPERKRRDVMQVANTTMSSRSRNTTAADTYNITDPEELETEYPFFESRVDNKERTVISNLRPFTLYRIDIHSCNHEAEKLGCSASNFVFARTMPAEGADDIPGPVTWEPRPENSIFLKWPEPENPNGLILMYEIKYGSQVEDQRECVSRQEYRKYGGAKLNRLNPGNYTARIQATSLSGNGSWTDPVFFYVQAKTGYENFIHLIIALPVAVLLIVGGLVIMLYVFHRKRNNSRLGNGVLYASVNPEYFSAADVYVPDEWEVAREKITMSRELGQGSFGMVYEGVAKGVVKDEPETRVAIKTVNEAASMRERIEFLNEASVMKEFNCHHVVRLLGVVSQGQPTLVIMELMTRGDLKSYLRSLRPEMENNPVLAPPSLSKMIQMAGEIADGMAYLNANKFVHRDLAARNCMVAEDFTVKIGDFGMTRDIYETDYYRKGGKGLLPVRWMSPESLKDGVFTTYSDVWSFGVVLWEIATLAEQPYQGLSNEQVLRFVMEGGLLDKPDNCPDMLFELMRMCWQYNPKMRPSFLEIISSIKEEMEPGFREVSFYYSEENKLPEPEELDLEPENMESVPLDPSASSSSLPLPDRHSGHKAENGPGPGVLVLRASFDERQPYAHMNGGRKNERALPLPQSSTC
T3 sequence (Q9UM73 19-1620): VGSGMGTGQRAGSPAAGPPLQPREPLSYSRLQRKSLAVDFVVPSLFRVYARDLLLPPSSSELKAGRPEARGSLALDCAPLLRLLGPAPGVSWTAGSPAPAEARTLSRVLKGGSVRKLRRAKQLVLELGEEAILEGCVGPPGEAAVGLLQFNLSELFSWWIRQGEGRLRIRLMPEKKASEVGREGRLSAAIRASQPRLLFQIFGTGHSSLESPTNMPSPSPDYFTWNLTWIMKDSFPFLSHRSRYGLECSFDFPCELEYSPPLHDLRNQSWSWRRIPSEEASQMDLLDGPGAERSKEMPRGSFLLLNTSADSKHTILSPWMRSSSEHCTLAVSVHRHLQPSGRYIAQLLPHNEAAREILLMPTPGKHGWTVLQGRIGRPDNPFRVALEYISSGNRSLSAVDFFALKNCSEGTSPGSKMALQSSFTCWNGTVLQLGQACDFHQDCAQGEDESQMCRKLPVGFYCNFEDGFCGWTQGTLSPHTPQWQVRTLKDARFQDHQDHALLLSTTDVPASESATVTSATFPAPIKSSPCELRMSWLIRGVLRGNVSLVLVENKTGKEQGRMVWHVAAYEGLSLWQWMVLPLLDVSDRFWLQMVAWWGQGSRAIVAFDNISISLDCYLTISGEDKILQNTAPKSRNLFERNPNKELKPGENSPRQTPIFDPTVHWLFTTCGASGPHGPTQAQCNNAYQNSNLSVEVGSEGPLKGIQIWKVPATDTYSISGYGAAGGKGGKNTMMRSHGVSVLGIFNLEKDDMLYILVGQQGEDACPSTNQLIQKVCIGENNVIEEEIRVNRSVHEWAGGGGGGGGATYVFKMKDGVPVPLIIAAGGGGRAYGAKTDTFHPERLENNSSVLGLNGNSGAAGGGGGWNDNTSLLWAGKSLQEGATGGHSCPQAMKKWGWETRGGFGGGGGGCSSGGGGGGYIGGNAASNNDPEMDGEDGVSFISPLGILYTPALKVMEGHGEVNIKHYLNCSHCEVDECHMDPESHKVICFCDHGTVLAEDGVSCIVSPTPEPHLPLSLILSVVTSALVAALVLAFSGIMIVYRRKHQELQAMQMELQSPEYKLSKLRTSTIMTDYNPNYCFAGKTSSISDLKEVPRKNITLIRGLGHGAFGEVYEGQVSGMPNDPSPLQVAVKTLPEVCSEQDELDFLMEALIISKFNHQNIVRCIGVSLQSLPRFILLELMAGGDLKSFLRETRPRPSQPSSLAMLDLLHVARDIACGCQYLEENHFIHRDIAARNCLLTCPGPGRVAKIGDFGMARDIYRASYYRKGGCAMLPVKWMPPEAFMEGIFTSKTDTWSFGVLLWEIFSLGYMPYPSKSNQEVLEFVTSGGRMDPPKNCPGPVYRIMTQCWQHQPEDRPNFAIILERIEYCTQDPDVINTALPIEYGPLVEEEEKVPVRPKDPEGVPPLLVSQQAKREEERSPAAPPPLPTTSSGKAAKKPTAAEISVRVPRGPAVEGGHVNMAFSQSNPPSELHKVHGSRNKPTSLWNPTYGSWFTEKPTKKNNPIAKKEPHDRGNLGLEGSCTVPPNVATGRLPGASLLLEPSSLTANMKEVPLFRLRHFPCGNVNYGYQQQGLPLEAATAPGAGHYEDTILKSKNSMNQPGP
T2 sequence (Q14289 whole entry): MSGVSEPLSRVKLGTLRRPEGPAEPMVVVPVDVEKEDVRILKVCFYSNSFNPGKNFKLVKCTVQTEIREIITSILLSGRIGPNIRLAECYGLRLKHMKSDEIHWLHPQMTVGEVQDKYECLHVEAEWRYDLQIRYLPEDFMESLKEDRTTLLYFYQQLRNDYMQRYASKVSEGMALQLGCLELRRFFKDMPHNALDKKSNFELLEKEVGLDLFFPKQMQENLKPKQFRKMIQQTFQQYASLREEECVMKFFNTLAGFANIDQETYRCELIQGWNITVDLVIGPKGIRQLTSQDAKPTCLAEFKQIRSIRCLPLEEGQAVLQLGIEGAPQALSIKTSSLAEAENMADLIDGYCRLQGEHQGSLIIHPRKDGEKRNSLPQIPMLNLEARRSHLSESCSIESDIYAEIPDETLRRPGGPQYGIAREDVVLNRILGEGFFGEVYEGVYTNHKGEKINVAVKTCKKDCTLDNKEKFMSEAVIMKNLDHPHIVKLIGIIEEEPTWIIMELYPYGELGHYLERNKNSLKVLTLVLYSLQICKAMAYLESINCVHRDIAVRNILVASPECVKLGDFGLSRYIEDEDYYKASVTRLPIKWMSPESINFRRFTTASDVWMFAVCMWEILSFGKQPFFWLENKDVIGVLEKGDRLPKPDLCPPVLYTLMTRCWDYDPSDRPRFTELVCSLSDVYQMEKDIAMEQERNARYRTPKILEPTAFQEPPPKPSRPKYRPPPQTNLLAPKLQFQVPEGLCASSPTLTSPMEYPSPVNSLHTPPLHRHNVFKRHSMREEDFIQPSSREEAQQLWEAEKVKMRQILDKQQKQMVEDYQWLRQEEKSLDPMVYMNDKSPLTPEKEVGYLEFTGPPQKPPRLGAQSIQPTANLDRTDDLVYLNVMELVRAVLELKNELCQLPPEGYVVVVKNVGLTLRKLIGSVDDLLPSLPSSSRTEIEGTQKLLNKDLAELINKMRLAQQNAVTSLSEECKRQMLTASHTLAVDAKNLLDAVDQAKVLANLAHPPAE
T7 sequence (P07332 whole entry): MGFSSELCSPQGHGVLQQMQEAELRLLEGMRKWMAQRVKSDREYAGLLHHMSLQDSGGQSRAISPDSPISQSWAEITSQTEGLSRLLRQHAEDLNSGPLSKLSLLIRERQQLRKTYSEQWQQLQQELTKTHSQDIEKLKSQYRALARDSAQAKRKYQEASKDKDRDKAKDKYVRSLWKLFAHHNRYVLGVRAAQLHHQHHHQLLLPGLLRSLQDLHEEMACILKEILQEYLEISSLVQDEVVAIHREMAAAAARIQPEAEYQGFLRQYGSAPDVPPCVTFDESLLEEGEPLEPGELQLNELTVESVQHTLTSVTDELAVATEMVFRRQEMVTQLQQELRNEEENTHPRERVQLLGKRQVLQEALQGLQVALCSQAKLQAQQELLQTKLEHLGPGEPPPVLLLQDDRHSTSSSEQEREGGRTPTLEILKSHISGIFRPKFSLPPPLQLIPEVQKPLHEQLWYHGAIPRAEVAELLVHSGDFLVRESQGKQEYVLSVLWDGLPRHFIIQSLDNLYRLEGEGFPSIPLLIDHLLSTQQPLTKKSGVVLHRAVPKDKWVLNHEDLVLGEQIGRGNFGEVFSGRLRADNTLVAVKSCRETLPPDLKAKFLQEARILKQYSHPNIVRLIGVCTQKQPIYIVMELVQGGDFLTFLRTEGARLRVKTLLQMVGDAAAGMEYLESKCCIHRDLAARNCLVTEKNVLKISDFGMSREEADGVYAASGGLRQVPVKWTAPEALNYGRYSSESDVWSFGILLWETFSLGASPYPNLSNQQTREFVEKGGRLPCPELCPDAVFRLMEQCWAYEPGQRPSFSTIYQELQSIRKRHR

On to `C=CC(=O)Nc1cc(Nc2nccc(-c3c4n(c5ccccc35)CCCC4)n2)c(OC)cc1N(C)CCNC` [Imp3], for which the inhibition (as a rule, the change of the read-out against control, counted positive when it falls) at 1 µM against HIPK4(h) stood at 82%; at Pyk2(h), 83%; against ALK(h), 92%; at IGF-1R(h), activated, 64%; on ErbB2(h) it was 83%; at MYO3B(h), 67%. The inhibition at 1 µM on Fes(h) is 74%. Also, the IC50 (as a rule, the concentration needed to halve the response being measured) at HIPK4(h) worked out at 276 nM; on Pyk2(h), 227 nM; at ALK(h), 53 nM; at IGF-1R(h), activated, 709 nM; at ErbB2(h) it was 197 nM; at MYO3B(h), 506 nM. For the same molecule, on Fes(h), the concentration for half-maximal inhibition (IC50) was found to be 309 nM.
As for `C=CC(=O)Nc1cc(Nc2nccc(-c3c4n(c5ccccc35)CCCC4)n2)c(OC)cc1N(C)CCN(C)C` [SH-1028], the inhibition at 1 µM is 67% at HIPK4(h); 73% against Pyk2(h); 85% at ALK(h); 46% on IGF-1R(h), activated; 72% against ErbB2(h); 58% against MYO3B(h). The same molecule gave an inhibition at 1 µM against Fes(h) of 46%. Besides, the 50% inhibitory concentration (IC50) stood at 232 nM on HIPK4(h); 228 nM at Pyk2(h); 79 nM at ALK(h); 499 nM at IGF-1R(h), activated; 55 nM on ErbB2(h); 349 nM on MYO3B(h). Besides, the half-maximal inhibitory concentration (IC50) at Fes(h) turned out to be 557 nM.
